Test results as given in PubChem BioAssay (NCI).
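Growth conditions: 96-well plates. Treatment: test compound, 48 hours, 5 concentrations. Analysis: linear interpolation between bracketing concentrations; unreached endpoints set to highest concentration. TGI: total growth inhibition.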

Key:
Test in all cases: inhibition of tumour cell growth, NCI panel, 48 h
SF-539 CNS = system: SF-539 CNS
SF-268 CNS = system: SF-268 CNS
SNB-75 CNS = system: SNB-75 CNS
MOLT-4 leukemia = system: MOLT-4 leukemia
MCF7 breast = system: MCF7 breast
HCT-15 colon = system: HCT-15 colon
U251 CNS = system: U251 CNS
HCT-116 colon = system: HCT-116 colon
NCI-H23 lung = system: NCI-H23 lung
HOP-92 NSCLC = system: HOP-92 NSCLC
MDA-MB-231 breast = system: MDA-MB-231 breast
NCI-H522 lung = system: NCI-H522 lung
OVCAR-8 ovarian = system: OVCAR-8 ovarian
NCI/ADR-RES ovarian = system: NCI/ADR-RES ovarian
NCI-H460 lung = system: NCI-H460 lung
SK-MEL-2 melanoma = system: SK-MEL-2 melanoma
LOX IMVI melanoma = system: LOX IMVI melanoma
MDA-N = system: MDA-N
HT29 colon = system: HT29 colon
CCRF-CEM leukemia = system: CCRF-CEM leukemia
MDA-MB-435 = system: MDA-MB-435
SF-295 CNS = system: SF-295 CNS
TK-10 renal = system: TK-10 renal
KM12 colon = system: KM12 colon
UACC-62 melanoma = system: UACC-62 melanoma
SK-OV-3 ovarian = system: SK-OV-3 ovarian
OVCAR-3 ovarian = system: OVCAR-3 ovarian
OVCAR-4 ovarian = system: OVCAR-4 ovarian
HOP-62 NSCLC = system: HOP-62 NSCLC
SK-MEL-5 melanoma = system: SK-MEL-5 melanoma
RPMI-8226 leukemia = system: RPMI-8226 leukemia
HCC-2998 colon = system: HCC-2998 colon
A549 NSCLC = system: A549 NSCLC
SN12C renal = system: SN12C renal
RXF 393 renal = system: RXF 393 renal
A498 renal = system: A498 renal
M14 melanoma = system: M14 melanoma
COLO 205 colon = system: COLO 205 colon
PC-3 prostate = system: PC-3 prostate
T-47D breast = system: T-47D breast
UACC-257 melanoma = system: UACC-257 melanoma
EKVX NSCLC = system: EKVX NSCLC
NCI-H226 lung = system: NCI-H226 lung
HL-60(TB) leukemia = system: HL-60(TB) leukemia
SK-MEL-28 melanoma = system: SK-MEL-28 melanoma
SNB-19 CNS = system: SNB-19 CNS
HS 578T breast = system: HS 578T breast
IGROV1 ovarian = system: IGROV1 ovarian
K-562 leukemia = system: K-562 leukemia
UO-31 renal = system: UO-31 renal
DU-145 prostate = system: DU-145 prostate
ACHN renal = system: ACHN renal
OVCAR-5 ovarian = system: OVCAR-5 ovarian
SW-620 colon = system: SW-620 colon
786-0 renal = system: 786-0 renal

Measured: TGI

CC(=O)Oc1c(C)cc2c(c1C)C(C)CN2C(C)=O (stereo not given)
> 100 µM: SF-539 CNS | SF-268 CNS | SNB-75 CNS | MOLT-4 leukemia | MCF7 breast | HCT-15 colon | U251 CNS | HCT-116 colon | NCI-H23 lung | HOP-92 NSCLC | MDA-MB-231 breast | NCI-H522 lung | OVCAR-8 ovarian | NCI/ADR-RES ovarian | NCI-H460 lung | SK-MEL-2 melanoma | LOX IMVI melanoma | MDA-N | HT29 colon | CCRF-CEM leukemia | MDA-MB-435 | SF-295 CNS | TK-10 renal | KM12 colon | UACC-62 melanoma | SK-OV-3 ovarian | OVCAR-3 ovarian | OVCAR-4 ovarian | HOP-62 NSCLC | SK-MEL-5 melanoma | RPMI-8226 leukemia | HCC-2998 colon | A549 NSCLC | SN12C renal | RXF 393 renal | A498 renal | M14 melanoma | COLO 205 colon | PC-3 prostate | T-47D breast | UACC-257 melanoma | EKVX NSCLC | NCI-H226 lung | HL-60(TB) leukemia | SK-MEL-28 melanoma | SNB-19 CNS | HS 578T breast | IGROV1 ovarian | K-562 leukemia | UO-31 renal | DU-145 prostate | ACHN renal | OVCAR-5 ovarian | SW-620 colon | 786-0 renal
